# Results published in ChEMBL document CHEMBL6083187, “Current status of the small molecule anti-HIV drugs in the pipeline or recently approved” (Bioorg Med Chem, 2024).
# Key:
# [1] = tested on: Human immunodeficiency virus 2; assay: Antiviral activity against HIV-2 ROD infected in human MT4 cells assessed as virus-induced cytopathic effect incubated for 5 days by MTT assay; type: functional, organism-based; settings: Human immunodeficiency virus 2, ROD, MT4, 120 h
# [2] = tested on: Human immunodeficiency virus 1; assay: Antiviral activity against HIV-1 NL4-3 infected in human MT2 cells assessed as reduction in viral replication; type: functional, organism-based; settings: Human immunodeficiency virus 1, NL4-3, MT2
# [3] = biological target: Human immunodeficiency virus type 1 protease (Human immunodeficiency virus 1, UniProt Q72874); assay: Inhibition of HIV-1 protease by fluorescence resonance energy transfer analysis
# [4] = biological target: Structural capsid protein (Human immunodeficiency virus 1, UniProt Q76129); assay: Inhibition of HIV-1 NL4-3 monomeric capsid protein
# [5] = biological target: T1, Human immunodeficiency virus type 1 integrase (Human immunodeficiency virus 1, UniProt Q7ZJM1); assay: Inhibition of HIV-1 integrase strand transfer activity
# [6] = Inhibition of Influenza A virus RdRp
# [7] = biological target: T2, Human immunodeficiency virus type 1 reverse transcriptase (Human immunodeficiency virus 1, UniProt Q72547); assay: Inhibition of HIV-1 reverse transcriptase
# [8] = biological target: T1, Human immunodeficiency virus type 1 integrase; assay: Inhibition of HIV-1 BAL integrase strand transfer activity
# [9] = biological target: T1, Human immunodeficiency virus type 1 integrase; assay: Inhibition of HIV-1 NL4-3 integrase
# [10] = Tmax in human at 40 mg, po; type: ADME; settings: in vivo
# [11] = Half life in human at 20 mg by LC-MS/MS analysis; type: ADME; settings: in vivo
# [12] = Cmax in human at 20 mg, po; type: ADME; settings: in vivo
# [13] = Cmax in human at 40 mg, po; type: ADME; settings: in vivo
# [14] = Tmax in human at 20 mg, po; type: ADME; settings: in vivo
# [15] = Half life in human at 40 mg by LC-MS/MS analysis; type: ADME; settings: in vivo
# [16] = tested on: Human immunodeficiency virus 1; assay: Antiviral activity against HIV1 subtype A clinical isolate UG275; type: functional, organism-based; settings: Human immunodeficiency virus 1, UG275
# [17] = tested on: Human immunodeficiency virus 1; assay: Antiviral activity against HIV-1; type: functional, organism-based
# [18] = biological target: T2, Human immunodeficiency virus type 1 reverse transcriptase; assay: Inhibition of wild type HIV-1 reverse transcriptase
# [19] = biological target: T2, Human immunodeficiency virus type 1 reverse transcriptase; assay: Inhibition of HIV-1 NL4-3 reverse transcriptase
# T1 sequence (Q7ZJM1 whole entry): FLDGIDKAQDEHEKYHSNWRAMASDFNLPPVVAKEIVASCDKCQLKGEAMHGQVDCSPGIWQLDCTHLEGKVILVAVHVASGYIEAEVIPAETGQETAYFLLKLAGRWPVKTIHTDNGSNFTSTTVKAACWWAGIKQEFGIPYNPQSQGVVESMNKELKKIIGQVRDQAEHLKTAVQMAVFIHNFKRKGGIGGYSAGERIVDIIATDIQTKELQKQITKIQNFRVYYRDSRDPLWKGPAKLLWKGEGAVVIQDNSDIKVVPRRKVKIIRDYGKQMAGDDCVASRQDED
# Sequence of Structural capsid protein (Q76129 whole entry): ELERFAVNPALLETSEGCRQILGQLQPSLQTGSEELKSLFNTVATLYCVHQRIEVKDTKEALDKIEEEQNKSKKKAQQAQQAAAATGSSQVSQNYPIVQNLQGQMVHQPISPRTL
smiles,measurement,setting,value
C#C[C@]1(CO)C=C[C@@H](n2cc(C)c(=O)[nH]c2=O)O1,EC50,[1],30 nM
same,EC50,[2],450 nM
C=C(C)[C@@H]1CC[C@]2(NCCN3CCS(=O)(=O)CC3)CC[C@]3(C)[C@H](CC[C@@H]4[C@@]5(C)CC=C(c6ccc(C(=O)O)cc6)C(C)(C)[C@@H]5CC[C@]43C)[C@@H]12 [BMS-955176],IC50,[3],> 10000 nM
same,IC50,[4],> 50000 nM
same,IC50,[5],> 15000 nM
same,IC50,[6],> 100000 nM
same,IC50,[7],> 50000 nM
C[C@H]1CO[C@@H]2Cn3cc(C(=O)NCc4ccc(F)cc4F)c(=O)c(O)c3C(=O)N12 [CABOTEGRAVIR],IC50,[8],0.22 nM
same,IC50,[9],0.34 nM
CCC(=O)NS(=O)(=O)c1ccc(NC(=O)Cc2ccc(Br)c(Oc3cc(Cl)cc(C#N)c3)c2F)c(Cl)c1 [ELSULFAVIRINE],Tmax,[10],1.9 h
same,half-life,[11],1.7 h
same,Cmax,[12],7.5 ng/mL
same,Cmax,[13],10.8 ng/mL
same,Tmax,[14],1.1 h
same,half-life,[15],2.6 h
C=C(C)[C@@H]1CC[C@]2(NCCN3CCS(=O)(=O)CC3)CC[C@]3(C)[C@H](CC[C@@H]4[C@@]5(C)CC=C(C6=CC[C@@](CF)(C(=O)O)CC6)C(C)(C)[C@@H]5CC[C@]43C)[C@@H]12 [FIPRAVIRIMAT],EC50,[16],3.5 nM
same,EC50,[17],9 nM
Cc1cc(/C=C/C#N)cc(C)c1Nc1ccnc(Nc2ccc(C#N)cc2)n1 [RILPIVIRINE],IC50,[18],0.24 nM
same,IC50,[19],< 2 nM
